Assay results from patent publication US20050239899A1, “Beta-secretase inhibitors” (priority 2002, published 2005).

Legend:
rhBACE = target: T1, rhBACE (Homo sapiens, UniProt P56817); assay: Fluorescence BACE assay; type: biochemical; conditions: EDANS/Dabcyl peptide substrate, pH 5, 2 hours at 37 C
T1 construct: purchased R&D systems 931-AS
Experimental: The inhibitory activity of the compounds of the invention was shown in an in vitro assay, namely a fluorescence BACE assay.
The assay was set up in triplicate wells of 96 well black plate. rhBACE was diluted to 1 unit/well in […] (PBS +0.5% Triton-X 100, pH 5). BACE enzyme (obtained from R&D systems (ca.No. 931-AS), reference: Vasser et al., 1999, Science 286, 735-741) was incubated with various concentrations of inhibitor compound (10 nM to 500 µM) for 5 min; Reaction was started by adding peptide substrate (obtained from BACHEM (cat. No. M-2470), reference: Ermolieff et al., Biochemistry 39 (2000) 12450-56) with EDANS/Dabcyl labels. After incubation for 2 hours at 37 C the results were read in fluoroplate reader at 355 nm/486 nm.

cells = assay: cellular assay (activity in cells); type: cell-based
From the text: As combined pharmacophore, for example, a combination of common pharmacophore for aspartyl proteases and a surface-based (surf2lead®) pharmacophore of the crystallized beta-secretase:OM922 complex can be used. For the common pharmacophore of the aspartyl proteases the active center was employed for generation of the pharmacophore. For the surf2lead approach the surface of the active center of the beta-secretase: OM922 complex crystallized with inhibitor was used for generation of the pharmacophore. A query for PHACIR screening was generated from a combination of the two pharmacophores. The compounds of the focused library identified by virtual screening then can be subjected to an in vitro assay, e.g. a fluorescence BACE assay, or a cellular assay in order to determine its possible inhibitory action.

T1 sequence (P56817 46-501): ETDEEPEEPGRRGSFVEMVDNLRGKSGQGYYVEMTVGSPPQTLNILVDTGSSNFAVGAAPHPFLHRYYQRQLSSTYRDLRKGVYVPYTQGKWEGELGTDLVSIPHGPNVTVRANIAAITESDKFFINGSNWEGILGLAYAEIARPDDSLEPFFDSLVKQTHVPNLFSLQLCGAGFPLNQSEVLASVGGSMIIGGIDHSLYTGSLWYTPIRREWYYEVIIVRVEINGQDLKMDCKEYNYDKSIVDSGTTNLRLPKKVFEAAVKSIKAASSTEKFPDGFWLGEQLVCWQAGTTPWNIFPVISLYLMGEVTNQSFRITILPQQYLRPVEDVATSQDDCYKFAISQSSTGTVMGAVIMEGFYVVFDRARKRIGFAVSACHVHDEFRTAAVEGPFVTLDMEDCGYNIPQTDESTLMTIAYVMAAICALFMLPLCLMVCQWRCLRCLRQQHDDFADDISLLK

Compound | IC50 (rhBACE) | activity in cells / cell permeability (cells)
O=C(Nc1cc(-c2ccc(Cl)cc2)nn1-c1ccc(I)cc1)C1CCC1 [ID1] | 45 µM | –
Oc1c(Cl)cc(Cl)cc1/C=N/Nc1c(Cl)cncc1Cl [ID2] | 29 µM | –
C=CCn1c(SCc2ccc(Cl)cc2)nc2sc3c(c2c1=N)CCCC3 [ID3] | 10 µM | especially cell-permeable active compounds
C/C(=N\OC(=O)c1c(-c2c(Cl)cccc2Cl)noc1C)c1ccccc1O [ID4] | 140 to 170 µM | –
Oc1c(Cl)cc(Cl)cc1/C=N/Nc1ncnc2sc3c(c12)CCCC3 [ID5] | 53 µM | –
O=[N+]([O-])c1cc(C(F)(F)F)cc([N+](=O)[O-])c1N/N=C/c1cc(Cl)cc(Cl)c1O [ID6] | 39.3 µM | –
C/C(=N\Nc1ccccc1)c1cc(Cl)cc(Cl)c1O [ID7] | 14.4 µM | especially cell-permeable active compounds
